{"source": "paper PMC10557102", "about": "(Pharmacology Research & Perspectives, 2023)", "key": {"CYP3A4 [1]": {"target": "T1, CYP3A4 (Homo sapiens, UniProt P08684)", "T1 sequence (P08684 whole entry)": "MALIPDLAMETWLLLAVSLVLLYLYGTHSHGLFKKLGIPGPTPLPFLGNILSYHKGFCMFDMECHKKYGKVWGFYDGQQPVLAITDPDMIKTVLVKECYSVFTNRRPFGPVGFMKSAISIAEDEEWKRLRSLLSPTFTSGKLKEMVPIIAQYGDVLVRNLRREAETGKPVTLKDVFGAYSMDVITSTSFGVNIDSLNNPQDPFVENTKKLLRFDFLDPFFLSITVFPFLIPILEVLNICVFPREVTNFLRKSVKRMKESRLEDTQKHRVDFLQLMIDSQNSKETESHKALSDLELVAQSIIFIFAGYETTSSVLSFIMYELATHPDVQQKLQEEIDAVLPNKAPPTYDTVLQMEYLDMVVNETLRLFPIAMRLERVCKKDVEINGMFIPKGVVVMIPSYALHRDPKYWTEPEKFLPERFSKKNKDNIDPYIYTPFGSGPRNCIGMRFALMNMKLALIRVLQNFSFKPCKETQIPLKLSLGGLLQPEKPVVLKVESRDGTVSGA", "assay": "Cocktail DDI study: PK of midazolam and 1-OH midazolam with/without nivasorexant", "conditions": "for AUC(0-t) / half-life: both, human, plasma, oral; for half-life: t ½"}, "healthy subjects": {"system": "healthy subjects", "assay": "Safety and tolerability in the clinical study", "conditions": "Day 1 to Day 15, healthy subjects"}, "CYP3A4 [2]": {"target": "T1, CYP3A4", "conditions": "cited from earlier work"}, "CYP2C9": {"system": "CYP2C9", "conditions": "for t max: median (range); for t max median difference B–A / t max median difference D–A: median difference (90% CI); for t ½ ratio Trt B/Trt A / t ½ ratio Trt D/Trt A / AUC0–24 ratio Trt B/Trt A / C max ratio Trt B/Trt A / AUC0–24 ratio Trt D/Trt A / C max ratio Trt D/Trt A: ratio of geometric means (90% CI); for AUC0–24 ratio Trt B/Trt A / C max ratio Trt B/Trt A: initial nivasorexant dose vs cocktail alone; for AUC0–24 ratio Trt D/Trt A / C max ratio Trt D/Trt A: nivasorexant steady state vs cocktail alone; for half-life: t ½"}, "CYP2C19": {"system": "CYP2C19", "conditions": "25 mg b.i.d. for 6 days; cited from earlier work"}, "[3]": {"conditions": "Trt B, Day 8, cocktail + initial 100 mg nivasorexant, geometric mean (95% CI)"}, "[4]": {"conditions": "Trt A, Day 1, cocktail alone, geometric mean (95% CI)"}, "[5]": {"conditions": "Trt D, Day 15, cocktail + nivasorexant at steady state, geometric mean (95% CI)"}, "[6]": {"conditions": "ratio of geometric means (90% CI)"}, "[7]": {"conditions": "ratio of geometric means (90% CI), initial nivasorexant dose vs cocktail alone"}, "[8]": {"conditions": "ratio of geometric means (90% CI), nivasorexant steady state vs cocktail alone"}}, "note": "“And” between values parts separate entries of the source, which are not always exact repeats. Equal values may be shown once. Read-outs that look alike come from different tables or passages of the source.", "data": [{"smiles": "Cc1ncc2n1-c1ccc(Cl)cc1C(c1ccccc1F)=NC2", "note": "[midazolam]", "values": [{"measurement": "t max", "setting": "CYP3A4 [1]; Trt A, Day 1, cocktail alone, median (range)", "value": "0.75 (0.50–3.00) h"}, {"measurement": "AUC0–24", "setting": "CYP3A4 [1]; [3]", "value": "22.7 (19.5–26.5) ng*h/mL"}, {"measurement": "AUC(0-t)", "setting": "CYP3A4 [1]; AUC0–24, Trt A, Day 1, cocktail alone, geometric mean (95% CI)", "value": 14.6, "unit": "ng·h/mL"}, {"measurement": "AUC(0-t)", "setting": "CYP3A4 [1]; AUC0–24, Trt D, Day 15, cocktail + nivasorexant at steady state, geometric mean (95% CI)", "value": 54.8, "unit": "ng·h/mL"}, {"measurement": "half-life", "setting": "CYP3A4 [1]; [4]", "value": 4.94, "unit": "h"}, {"measurement": "half-life", "setting": "CYP3A4 [1]; [5]", "value": 6.75, "unit": "h"}, {"measurement": "t max median difference B–A", "setting": "CYP3A4 [1]; median difference (90% CI)", "value": "0.00 (−0.13–0.13) h"}, {"measurement": "t max median difference D–A", "setting": "CYP3A4 [1]; median difference (90% CI)", "value": "0.00 (−0.13–0.13) h"}, {"measurement": "t ½ ratio Trt B/Trt A", "setting": "CYP3A4 [1]; [6]", "value": "1.67 (1.38–2.01)"}, {"measurement": "t ½ ratio Trt D/Trt A", "setting": "CYP3A4 [1]; [6]", "value": "1.25 (1.07–1.46)"}, {"measurement": "AUC0–24 ratio Trt B/Trt A", "setting": "CYP3A4 [1]; [7]", "value": "1.56 and 1.6"}, {"measurement": "C max ratio Trt B/Trt A", "setting": "CYP3A4 [1]; [7]", "value": "1.34 (1.22–1.46)"}, {"measurement": "AUC0–24 ratio Trt D/Trt A", "setting": "CYP3A4 [1]; [8]", "value": "3.71 and 3.7"}, {"measurement": "C max ratio Trt D/Trt A", "setting": "CYP3A4 [1]; [8]", "value": "2.62 (2.31–2.97)"}, {"measurement": "safety and tolerability (in words)", "setting": "healthy subjects", "value": "safe and well tolerated"}, {"measurement": "increase in midazolam AUC", "setting": "CYP3A4 [2]; initial b.i.d. dosing with 200 mg nivasorexant", "value": 1.8, "unit": "fold"}, {"measurement": "increase in midazolam AUC", "setting": "CYP3A4 [2]; repeated b.i.d. dosing (over 10 days) with 200 mg nivasorexant", "value": 4.5, "unit": "fold"}]}, {"smiles": "CC(C(=O)O)c1ccc(-c2ccc(O)cc2)c(F)c1", "note": "(stereo not drawn) [4‐OH flurbiprofen, 4‐hydroxyflurbiprofen]", "values": [{"measurement": "C max", "setting": "CYP2C9; Trt A, Day 1, cocktail alone (flurbiprofen 50 mg), geometric mean (95% CI)", "value": "316 (278–359) ng/mL"}, {"measurement": "AUC0–24", "setting": "CYP2C9; [4]", "value": "2516 (2280–2778) ng*h/mL"}, {"measurement": "t ½", "setting": "CYP2C9; [4]", "value": "7.85 (7.04–8.75) h"}, {"measurement": "t max", "setting": "CYP2C9; Trt A, Day 1, cocktail alone", "value": "3.00 (1.50–6.00) h"}, {"measurement": "AUC0–24", "setting": "CYP2C9; [3]", "value": "2366 (2138–2618) ng*h/mL"}, {"measurement": "C max", "setting": "CYP2C9; [3]", "value": "289 (259–322) ng/mL"}, {"measurement": "t ½", "setting": "CYP2C9; [3]", "value": "8.03 (7.28–8.87) h"}, {"measurement": "t max", "setting": "CYP2C9; Trt B, Day 8, cocktail + initial 100 mg nivasorexant", "value": "3.00 (1.50–6.02) h"}, {"measurement": "AUC0–24", "setting": "CYP2C9; [5]", "value": "1924 (1763–2099) ng*h/mL"}, {"measurement": "t ½", "setting": "CYP2C9; [5]", "value": "12.0 (10.0–14.3) h"}, {"measurement": "t max", "setting": "CYP2C9; Trt D, Day 15, cocktail + nivasorexant at steady state", "value": "3.00 (1.50–6.00) h"}, {"measurement": "t max median difference B–A", "setting": "CYP2C9", "value": "0.74 (−0.02–1.50) h"}, {"measurement": "t max median difference D–A", "setting": "CYP2C9", "value": "0.50 (−0.04–1.00) h"}, {"measurement": "t ½ ratio Trt B/Trt A", "setting": "CYP2C9", "value": "1.02 (0.97–1.09)"}, {"measurement": "t ½ ratio Trt D/Trt A", "setting": "CYP2C9", "value": "1.54 (1.39–1.70)"}, {"measurement": "AUC0–24 ratio Trt B/Trt A", "setting": "CYP2C9", "value": "0.94 (0.90–0.98)"}, {"measurement": "C max ratio Trt B/Trt A", "setting": "CYP2C9", "value": "0.91 (0.87–0.96)"}, {"measurement": "AUC0–24 ratio Trt D/Trt A", "setting": "CYP2C9", "value": "0.74 (0.70–0.79)"}, {"measurement": "C max ratio Trt D/Trt A", "setting": "CYP2C9", "value": "0.53 (0.49–0.59)"}]}, {"smiles": "CC(C(=O)O)c1ccc(-c2ccccc2)c(F)c1", "note": "(stereo not drawn) [flurbiprofen]", "values": [{"measurement": "Cmax", "setting": "CYP2C9; both, human, in vivo, 50 mg, C max, Trt A, Day 1, cocktail alone (flurbiprofen 50 mg), geometric mean (95% CI)", "value": 6410, "unit": "ng/mL"}, {"measurement": "t max", "setting": "CYP2C9; both, human, in vivo, t max, Trt A, Day 1, cocktail alone", "value": 2, "unit": "h"}, {"measurement": "t max", "setting": "CYP2C9; both, human, in vivo, t max, Trt D, Day 15, cocktail + nivasorexant at steady state", "value": 2.5, "unit": "h"}, {"measurement": "half-life", "setting": "CYP2C9; both, human, in vivo, Trt A, Day 1, cocktail alone, geometric mean (95% CI)", "value": 5.73, "unit": "h"}, {"measurement": "half-life", "setting": "CYP2C9; both, human, in vivo, Trt D, Day 15, cocktail + nivasorexant at steady state, geometric mean (95% CI)", "value": 7.89, "unit": "h"}, {"measurement": "t max median difference B–A", "setting": "CYP2C9", "value": "0.75 (0.00–1.51) h"}, {"measurement": "t max median difference D–A", "setting": "CYP2C9", "value": "0.50 (−0.13–1.16) h"}, {"measurement": "t ½ ratio Trt B/Trt A", "setting": "CYP2C9", "value": "1.11 (1.07–1.15)"}, {"measurement": "t ½ ratio Trt D/Trt A", "setting": "CYP2C9", "value": "1.39 (1.31–1.47)"}, {"measurement": "AUC0–24 ratio Trt B/Trt A", "setting": "CYP2C9", "value": 1.04}, {"measurement": "C max ratio Trt B/Trt A", "setting": "CYP2C9", "value": "0.97 (0.86–1.08)"}, {"measurement": "AUC0–24 ratio Trt D/Trt A", "setting": "CYP2C9", "value": "1.47 and 1.5"}, {"measurement": "C max ratio Trt D/Trt A", "setting": "CYP2C9", "value": "1.08 (0.97–1.20)"}, {"measurement": "safety and tolerability (in words)", "setting": "healthy subjects", "value": "safe and well tolerated"}]}, {"smiles": "COCCCC/C(=N\\OCCN)c1ccc(C(F)(F)F)cc1", "note": "[fluvoxamine]", "values": [{"measurement": "increase in omeprazole exposure", "setting": "CYP2C19", "value": 5.6, "unit": "fold"}]}]}
